Assay results published in US8895502B2, “β2-glycoprotein I peptide inhibitors” (Kansas State University Research Foundation, priority 2010, dated 2014).
Square brackets hold non-standard residues; d marks the D form.

B1: human β2-GPI: commercially-available human β2-GPI (SEQ ID NO. 15), whole molecule (protein, listed as Homo sapiens)
chain: MISPVLILFSSFLCHVAIAGRTCPKPDDLPFSTVVPLKTFYEPGEEITYSCKPGYVSRGGMRKFICPLTGLWPINTLKCTPRVCPFAGILENGAVRYTTFEYPNTISFSCNTGFYLNGADSAKCTEEGKWSPELPVCAPIICPPPSIPTFATLRVYKPSAGNNSLYRDTAVFECLPQHAMFGNDTITCTTHGNWTKLPECREVKCPFPSRPDNGFVNYPAKPTLYYKDKATFGCHDGYSLDGPEEIECTKLGNWSAMPSCKASCKVPVKKATVVYQGERVKIQEKFKNGMLHGDKVSFFCKNKEKKCSYTEDAQCIDGTIEVPKCFKEHSSLAFWKTDASDVKPC

Key:
C57Bl/6 mice [1] = test: Intestinal ischemia/reperfusion, mucosal injury score; assay type: in vivo, mouse; conditions: C57Bl/6 mice, peptide 40 μM i.v. 5 min prior to ischemia, 2 hours reperfusion
Method: (§1) C57Bl/6 and Rag-1^−/− mice were subjected to ischemia followed by reperfusion similar to previously described studies (Moses, T. et al., J. Leukoc. Biol. 86:971-980 (2009)). Briefly, ketamine (16 mg/kg) and xylazine (80 mg/kg) were used to anesthetize the mice. Buprenorphine (0.06 mg/kg) was then administered for pain. A midline laparotomy was performed to expose the abdominal cavity of the mice, which were then allowed to equilibrate for 30 min. Body temperature was maintained at 37° C. using a water-circulating heat pad. Placing a warm, saline moistened piece of gauze over the abdominal cavity prevented peritoneal desiccation. […] Ischemia was noted by the intestine changing from a pink color to a gray color. After 30 min of ischemia, the clamp was removed and the intestines were allowed to reperfuse for 5, 10, 15, or 120 min. […] Mice treated with the various β2-GPI peptides underwent the same procedure with i.v. administration of the peptides (40 μM) 5 min prior to artery occlusion. Peptides 296, 305, and 296Cys to Ser were dissolved in N. Saline (0.9% NaCl) and injected i.v. in 100-μL volumes. Peptides 100 and 181 were dissolved in DMSO prior to diluting 1/100 in N. Saline. Additional mice received peptides prior to Sham treatment.
Immediately after euthanasia, a 2-cm mid jejunum tissue section was immediately fixed in 10% buffered formalin, embedded in paraffin, and 8 μm sections were cut transversely and hematoxylin and eosin (H&E) stained. Mucosal injury was graded on a six-tiered scale, as described previously (Fleming, S. D. et al., J. Immunol. 169:2126-2133 (2002)). Briefly, the average damage score of the intestinal section (75-150 villi) was determined after grading each villus. […] Photomicrographs were obtained from H&E stained slides using a 20×, 0.5 Plan Fluor objective on a Nikon 80i microscope and images acquired at room temperature using a Nikon DS-5M camera with DS-L2 software.
Ischemia/reperfusion was performed on ketamine/xylazine anesthetized mice as described in Example 1 above. After 2 hours of reperfusion, the mice were euthanized and sera, liver, spleen, and 2 cm sections of the small intestine, approximately 10 cm distal to the gastroduodenal junction, were collected for histological and other analyses. Mice treated with the various β2-GPI peptides underwent the same procedure with i.v. administration of the peptides. Most studies assumed 2 mL total blood volume in a mouse and administered peptides to a final concentration of 40 μM at 5 min prior to ischemia. Dose response studies administered 1-40 μM peptide at 5 min prior to ischemia and time course studies administered 40 μM peptide at 5 min prior to ischemia, and at 15-, 30- or 60-min post-ischemia (i.e., during reperfusion).
After euthanasia, tissue sections were fixed and stained following the procedures outlined in Example 1. Mucosal injury (SMI) was also graded on a six-tiered scale, as described in Example 1.

PGE2 = test: Intestinal IR, ex vivo PGE2 generation; assay type: in vivo, mouse; conditions: C57Bl/6 mice, peptide 40 μM prior to IR
Method: C57Bl/6 and Rag-1^−/− mice were subjected to ischemia followed by reperfusion similar to previously described studies (Moses, T. et al., J. Leukoc. Biol. 86:971-980 (2009)). Briefly, ketamine (16 mg/kg) and xylazine (80 mg/kg) were used to anesthetize the mice. Buprenorphine (0.06 mg/kg) was then administered for pain. A midline laparotomy was performed to expose the abdominal cavity of the mice, which were then allowed to equilibrate for 30 min. Body temperature was maintained at 37° C. using a water-circulating heat pad. Placing a warm, saline moistened piece of gauze over the abdominal cavity prevented peritoneal desiccation. […] Ischemia was noted by the intestine changing from a pink color to a gray color. After 30 min of ischemia, the clamp was removed and the intestines were allowed to reperfuse for 5, 10, 15, or 120 min. […] Peptides 296, 305, and 296Cys to Ser were dissolved in N. Saline (0.9% NaCl) and injected i.v. in 100-μL volumes. Peptides 100 and 181 were dissolved in DMSO prior to diluting 1/100 in N. Saline. Additional mice received peptides prior to Sham treatment.
(§2) Ex vivo generation of eicosanoids by mid-jejunal tissue was determined. Immediately after collection, a 2-cm intestinal section from each mouse was minced, washed, resuspended in 37° C. oxygenated Tyrode's buffer (Sigma-Aldrich; St. Louis, Mo.), incubated at 37° C. for 20 minutes, and the supernatant collected. PGE2 and LTB4 concentrations were determined using enzyme immunoassay kits (Cayman Chemical; Ann Arbor, Mich.). IL-6 and IL-12 concentrations were determined using a Milliplex MAP immunoassay kit (Millipore) and read on a Milliplex Analyzer (Millipore). All eicosanoid and cytokine concentrations were standardized to the total tissue protein content.
(§3) Total peroxidase, LTB4, PGE2, IL-6, IL-12p40, and IL-12p70 concentrations were determined using the procedures described in Example 1.

C3 = test: Intestinal IR, C3 deposition immunohistochemistry; assay type: in vivo, mouse; conditions: C57Bl/6 mice, peptide infused prior to IR
Method: as §1
After euthanasia, an additional 2-cm intestinal section from each mouse was immediately snap frozen in O.C.T. freezing medium and 8 μm sections were placed on slides for immunohistochemistry. The C3 deposition and F4/80 expression on the tissue sections were detected by staining with a purified rat-anti-mouse C3 (Hycult Biotechnologies; Plymouth Meeting, Pa.) or F4/80 (eBioscience; San Diego, Calif.) antibody followed by a Texas-red conjugated donkey-anti-rat IgG secondary antibody (Jackson Immunoresearch). CD31 (PECAM-1) and CD106 (VCAM-1) were detected by FITC conjugated rat anti-mouse CD31 or CD106 (Biolegend; San Diego, Calif.) antibodies. Each experiment contained serial sections stained with the appropriate isotype control antibodies. All slides were mounted with ProLong Gold (Invitrogen). Images were obtained at room temperature using a Nikon Eclipse 80i microscope equipped with a CoolSnap CF camera (Photometrics) and analyzed using Metavue software (Molecular Devices). The fluorescence was semi-quantitated using Image J software (NIH) using the fluorescent area fraction after setting threshold for each experiment. The average of the isotype control was subtracted from each photo.

LTB4 = test: Intestinal IR, ex vivo LTB4 generation; assay type: in vivo, mouse; conditions: C57Bl/6 mice, peptide 40 μM prior to IR
Method: as §1, §2, §3

[2] = system: thioglycollate-elicited macrophages, nitric oxide; test: β2-GPI stimulated macrophage nitric oxide production; assay type: cell-based; conditions: mouse β2-GPI 10 μg/mL, peptide 40 μM, 18 hours
Method: C57Bl/6 mice were injected i.p. with 1 mL thioglycollate (4%) 4 days prior to peritoneal lavage. Peritoneal exudate macrophages or the B cell line, LK35.2, were seeded at 2×10^6 cells/mL in 24-well or 96-well plates. After macrophage adherence, both cell types were treated with mouse β2-GPI (10 μg/mL) with or without peptide (40 μM). Additional cells were unstimulated as a negative control or stimulated with 10 μg/mL LPS (E. coli 055B5) as a positive control. Supernatants were collected 18-20 hours after stimulation and analyzed for nitrite by Griess reagent (Hoffman & Fleming, Cell Biochem. Funct. 28:686-694 (2010)) or IL-6 by Milliplex MAP kit (Millipore) following the manufacturer's instructions using a Luminex 200 with xPONENT 3.1 and Analyst software (Millipore).

C57Bl/6 mice [3] = test: Intestinal ischemia/reperfusion, mucosal injury score; assay type: in vivo, mouse; conditions: Example 3, human β2-GPI in N. saline at 0.5-μg, 1-μg and 5-μg

| Molecule | IR-induced intestinal mucosal damage (injury score) (C57Bl/6 mice [1]) | IR-induced intestinal PGE2 production (PGE2) | C3 deposition / complement activation after IR (C3) | IR-induced intestinal LTB4 production (LTB4) | β2-GPI-induced nitric oxide production [2] | IR-induced intestinal injury (C57Bl/6 mice [3]) |
| --- | --- | --- | --- | --- | --- | --- |
| H-SHAEVTYSS-OH (H-[dS][dH][dA][dE][dV][dT][dY][dS][dS]-OH; also: retro-inverso) [peptide Retro-inverso D-p9, 13] | attenuated | attenuated | few to no C3 deposits | attenuated | – | – |
| H-SSYTVEAHS-OH (H-[dS][dS][dY][dT][dV][dE][dA][dH][dS]-OH; SMILES CC(C)[C@@H](NC(=O)[C@H](NC(=O)[C@@H](Cc1ccc(O)cc1)NC(=O)[C@@H](CO)NC(=O)[C@H](N)CO)[C@H](C)O)C(=O)N[C@H](CCC(=O)O)C(=O)N[C@H](C)C(=O)N[C@H](Cc1c[nH]cn1)C(=O)N[C@H](CO)C(=O)O) [peptide D-p9, p9 synthesized with D-amino acids] | attenuated | attenuated | – | did not | – | – |
| H-GNDTVMCTEQQN-NH2 [peptide 181, 17, reference compound] | IR-induced intestinal damage similar to untreated mice | – | – | – | – | – |
| H-SSYTVEAHS-NH2 [peptide p9, 12] | attenuated | attenuated | significantly less deposition | attenuated | significantly attenuated | – |
| H-SKNKEKK-NH2 [peptide p7, 11] | attenuate actual epithelial injury more effectively | returned PGE2 concentrations to those found in Sham treated animals | – | – | – | – |
| B1 | – | – | – | – | – | effective at attenuating |
